Data: patent US12240834B2, “Polymorphs of [2-(1H-indol-3-yl)-1H-imidazol-4-yl] (3,4,5-trimethoxyphenyl)methanone and its salts” (VERU INC., priority 2022, dated 2025)

Columns and labels:
[1] = Polymorph screen summary of forms (stability designation); assay type: physicochemical
Text: Polymorphism is the ability of a chemical entity to exist in different three-dimensional arrangements in the solid state. Different polymorphic forms of a compound can have different physical properties. […] The screen was designed to prepare as many novel crystalline forms as possible and characterize these polymorphs for use in a pharmaceutical product. […] Samples generated during the study were characterized using differential scanning calorimetry (DSC), polarized light microscopy, thermogravimetric analysis (TGA), X-ray powder diffraction (XRD), Fourier transform infrared spectroscopy (FT-IR), and dynamic vapor sorption (DVS). […] These were essentially the same except for minor changes in the diffraction pattern and DSC thermograms. […] The HCl salt was characterized polymorphic as multiple polymorphic forms were made and characterized as described below. […] Based on diffraction behavior, each polymorphic form was studied to determine differentiation. The characterization of each hydrochloride polymorph form began with an X-ray powder diffraction (XRD) data comparison of each form with the other forms. This was generally followed by DSC and TGA analysis.

[2] = Hygroscopicity by dynamic vapor sorption (DVS); assay type: physicochemical; details: for DVS behaviour: moisture adsorption-desorption
Protocol: Hygroscopicity—Dynamic Vapor Sorption (DVS)
DVS is a gravimetric technique that measures how quickly and how much of a solvent (water) is absorbed by a sample. The relative humidity or vapor concentration surrounding the sample is varied while the change in mass of the sample is measured. […] The mass values at each relative humidity step are used to generate an isotherm. Isotherms are divided in two components: sorption for increasing humidity steps and desorption for decreasing humidity steps. A plot of kinetic data is also used to show the change in mass and humidity as a function of time.
The samples were analyzed using a TA Q5000 automated dynamic vapor sorption analyzer. The samples were dried at higher temperature than ambient over a period of time and then cooled to 25° C. with a dry nitrogen purge over them until they no longer lost mass at 0% RH (relative humidity). The samples were then subjected to 0 to 90% RH, back to 10% RH at 25° C. in 10% RH steps.

[3] = Storage of solid forms at ambient conditions (form conversion)
[4] = Non-competitive slurry experiments (solid form stability, XRD readout); assay type: physicochemical; details: ambient temperature
Protocol: In addition to the solvent recrystallization experiments (Example 3), non-competitive slurry (Example 4) and competitive slurry (Example 5) experiments were performed to make new solid-state forms. Non-competitive slurry experiments were performed to search for new solid-state forms. These experiments relied on solubility differences of different polymorphic forms (if the compound is polymorphic).
The solution is saturated with respect to the polymorphic form dissolved. […] In addition, noncompetitive slurry experiments are often useful in identifying solvents that form solvates with the compound.
The slurry experiments were performed by exposing excess starting material, which was in all cases in this experiment Form B, to neat single and binary solvent systems and agitating the resulting suspensions for several days at ambient temperature. The solids were vacuum filtered and analyzed by XRD to determine the resulting form. To avoid possible desolvation or physical change after isolation, the samples were not further dried before X-ray analysis.

**Q.** For COc1cc(C(=O)c2c[nH]c(-c3c[nH]c4ccccc34)n2)cc(OC)c1OC.Cl [Form CH], which “Description (stability / hydrate designation of the form)” value [1] is on record?
**A.** The value was “Monohydrate”.

**Q.** And the “water uptake (DVS)” value ([2]; at high humidity, returned to starting mass upon completion of the scan)?
**A.** The value was “up to 0.95 wt %”.

**Q.** What about the “DVS behaviour” value [2] of the same compound?
**A.** Its value is “very low uptake of water adsorption”.

**Q.** Which results are given for COc1cc(C(=O)c2c[nH]c(-c3c[nH]c4ccccc34)n2)cc(OC)c1OC.Cl [Form I]?
**A.** Description (stability / hydrate designation of the form) [1]: Metastable; form conversion on storage ([3]; after a month of storage at ambient conditions): converted to a mixture of Form CH and Form H

**Q.** Which “Description (stability / hydrate designation of the form)” value [1] does the source give for COc1cc(C(=O)c2c[nH]c(-c3c[nH]c4ccccc34)n2)cc(OC)c1OC.Cl [Form H] here?
**A.** Its value is “Stable Form”.

**Q.** What about the “form conversion on holding at ambient conditions” value ([3]; held at ambient conditions) of the same compound?
**A.** The value was “not observed to convert to any other polymorphic form”.

**Q.** For COc1cc(C(=O)c2c[nH]c(-c3c[nH]c4ccccc34)n2)cc(OC)c1OC.Cl [Form FH], which “Description (stability / hydrate designation of the form)” value [1] is on record?
**A.** Its value is “Hydrate”.

**Q.** For COc1cc(C(=O)c2c[nH]c(-c3c[nH]c4ccccc34)n2)cc(OC)c1OC [free base (Form I)], which “form resulting from slurry (XRD)” value ([4]; slurried in acetone, THF or toluene, several days) is on record?
**A.** Its value is “Form II”.

**Q.** For COc1cc(C(=O)c2c[nH]c(-c3c[nH]c4ccccc34)n2)cc(OC)c1OC.Cl [Form A], which “Description (stability / hydrate designation of the form)” value [1] is on record?
**A.** The value was “Metastable”.

**Q.** What about the “total weight gain (DVS)” value ([2]; at 90% RH) of the same compound?
**A.** The value was “about 0.4%”.

**Q.** And the “DVS behaviour” value [2]?
**A.** Its value is “very hydrophobic and does not appear to be prone to hydrate formation”.

**Q.** With COc1cc(C(=O)c2c[nH]c(-c3c[nH]c4ccccc34)n2)cc(OC)c1OC.Cl [Form D] as the compound, how does the “Description (stability / hydrate designation of the form)” value [1] read?
**A.** Its value is “Metastable”.

**Q.** What does the source list for COc1cc(C(=O)c2c[nH]c(-c3c[nH]c4ccccc34)n2)cc(OC)c1OC.Cl [Form B]?
**A.** Description (stability / hydrate designation of the form) [1]: Metastable; Final Form ([4]; 1-Propanol/EtOAc slurry, 11 Days): Form E1; Final Form ([4]; 2-Propanol/THF slurry, 11 Days): Form E1; Final Form ([4]; ACN/Acetone slurry, 11 Days): Form E1; Final Form ([4]; Acetone slurry, 14 Days): Form D; Final Form ([4]; Acetonitrile slurry, 14 Days): Form D; Final Form ([4]; Ethanol slurry, 14 Days): Solvate; Final Form ([4]; Ethanol/Toluene slurry, 11 Days): Form E1; Final Form ([4]; Ethanol/acetonitrile slurry, 11 Days): Form E1; Final Form ([4]; Ethyl acetate slurry, 14 Days): Form B; Final Form ([4]; Heptane slurry, 14 Days): Form B; Final Form ([4]; MeOH/Acetone slurry, 11 Days): Low crystallinity; Final Form ([4]; Methanol slurry, 14 Days): Solvate; Final Form ([4]; Methanol/DCM slurry, 11 Days): Solvate; Final Form ([4]; Methanol/Water slurry, 11 Days): Low crystallinity; Final Form ([4]; Methylene chloride slurry, 14 Days): Form B; Final Form ([4]; TFE/DCM slurry, 11 Days): Form B; Final Form ([4]; TFE/EtOAc slurry, 11 Days): Low order; Final Form ([4]; THF slurry, 14 Days): Form B; Final Form ([4]; Toluene slurry, 14 Days): Form B; Final Form ([4]; Water slurry, 14 Days): Low Crystallinity

**Q.** For COc1cc(C(=O)c2c[nH]c(-c3c[nH]c4ccccc34)n2)cc(OC)c1OC.Cl [Form GH], which “Description (stability / hydrate designation of the form)” value [1] is on record?
**A.** Its value is “Hydrate”.
